From US7825096B2, “O6-alkylguanine-DNA alkyltransferase inactivators and beta-glucuronidase cleavable prodrugs” (The United States of America as represented by the …, priority 2004, dated 2010)
≈ marks a conversion by molar mass, not a printed value. Counter-ions that a name gives are not always drawn.

How the values were obtained:
Solubility in water = format: physicochemical; conditions: for solubility: water
HT29 cells = test: HT29 cell killing by BCNU after drug pretreatment, colony-forming assay; format: cell-based; conditions: for HT29 cell killing by BCNU after prodrug without β-glucuronidase: 5 hr prodrug, no β-glucuronidase, then two-hour 40 μM BCNU; for HT29 cell killing by BCNU after prodrug without β-glucuronidase / HT29 cell killing by BCNU after prodrug with β-glucuronidase: FIG. 3; for HT29 cell killing by BCNU after prodrug with β-glucuronidase: bovine liver β-glucuronidase 20 units/mL of medium, 7 or 14 hr (1), 14 hr (2), then 2 hr 40 μM BCNU
Description: HT29 cells were grown in RPMI 1640 medium in the presence of 10% fetal bovine serum. The effect of alkyltransferase inactivators on the sensitivity of cells to BCNU was determined using a colony-forming assay. Cells were plated at a density of 10^6 in 25 cm^2 flasks and 24 h later were incubated with different concentrations of prodrugs for the time indicated before exposure to 40 μM BCNU for 2 hr. For experiments involving β-glucuronidase, the bovine liver protein was added to the cell cultures at 20 units/mL of medium and incubated along with the prodrug. BCNU was dissolved in absolute ethanol at a concentration of 8 mM. It was diluted with the same volume of ice-cold phosphate-buffered saline, and was immediately administered to cells. After two hr, the medium was replaced with fresh medium and the cells were left to grow for an additional 16-18 h. The cells were then replated at densities of 250 cells per 25 cm^2 flask and grown for 8 days until discrete colonies had formed. The colonies were washed with 0.9% saline solution, stained with 0.5% crystal violet in ethanol, and counted. The plating efficiency of cells not treated with drugs was about 50%.

[1] = Stability under acidic conditions; format: physicochemical
[2] = target: T1, bovine liver β-glucuronidase (Bos taurus, UniProt A3KMY8); test: Enzymatic hydrolysis of prodrugs by bovine liver β-glucuronidase in MOPS buffer; format: biochemical; conditions: 10 units/mL bovine liver enzyme, FIG. 1A
T1 construct: bovine liver β-glucuronidase (Sigma type B-10) (10.2 units/mg of protein); purchased Sigma type B-10; host or cells: bovine liver
T1 sequence (A3KMY8 1-652): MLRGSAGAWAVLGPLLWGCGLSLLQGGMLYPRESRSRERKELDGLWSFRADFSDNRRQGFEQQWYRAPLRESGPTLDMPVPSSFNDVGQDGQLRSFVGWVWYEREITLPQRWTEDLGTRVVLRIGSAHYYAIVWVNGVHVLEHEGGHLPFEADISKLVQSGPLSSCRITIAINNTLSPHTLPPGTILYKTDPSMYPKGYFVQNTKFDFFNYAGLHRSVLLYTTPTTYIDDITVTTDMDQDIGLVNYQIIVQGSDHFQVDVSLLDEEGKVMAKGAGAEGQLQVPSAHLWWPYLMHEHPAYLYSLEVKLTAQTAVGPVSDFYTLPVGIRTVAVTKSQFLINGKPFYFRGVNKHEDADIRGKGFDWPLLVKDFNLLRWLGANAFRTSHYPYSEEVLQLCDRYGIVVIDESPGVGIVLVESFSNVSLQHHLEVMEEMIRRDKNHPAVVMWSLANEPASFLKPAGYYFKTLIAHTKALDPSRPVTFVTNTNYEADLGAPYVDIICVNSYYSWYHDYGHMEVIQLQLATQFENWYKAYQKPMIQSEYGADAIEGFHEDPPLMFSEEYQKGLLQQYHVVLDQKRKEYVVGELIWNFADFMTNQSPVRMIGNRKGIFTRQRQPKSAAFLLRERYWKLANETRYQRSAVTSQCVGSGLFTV
Description: (§1) The enzymatic hydrolysis of the prodrugs was investigated with both E. coli and bovine liver β-glucuronidase in MOPS buffer at pH 7.0. Prodrugs and p-nitrobenzyl alcohol (HPLC internal standard) were dissolved in the MOPS buffer (pH 7.0) at 37° C. Enzymatic cleavage was initiated by adding 0.2 Fishman units of E. coli β-glucuronidase (Sigma type IX-A) (42.8 units/mg of protein) or 10 Fishman units of bovine liver β-glucuronidase (Sigma type B-10) (10.2 units/mg of protein) to the incubation buffer. Aliquots (100 μL) of the reaction mixture were withdrawn at various times and were mixed with 100 μL of acetonitrile/0.1 M TEAA (6:4) to quench the enzymatic reaction. Prodrug and product concentrations were determined by HPLC. For determination of enzyme kinetic parameters, prodrug solutions at concentrations between 5 and 300 μM were incubated with a fixed amount of enzyme. Aliquots were withdrawn at time intervals varying from 1 to 20 min and the reactions were quenched as described above. Initial reaction velocities were determined at each substrate concentration. Non-linear regression methods were used to determine KM and Vmax values. Data were processed with Prism 3.0 software.

[3] = Stability (first-order hydrolysis) of prodrugs in aqueous buffers at 37° C., HPLC; format: physicochemical; conditions: for Observed first order rate constant for hydrolysis, kTris: 50 mM Tris-HCl (pH 7.5), 5 mM dithiothreitol, 0.1 mM EDTA; for Observed first order rate constant for hydrolysis, kTris / Observed first order rate constant for hydrolysis, kMOPS / Observed first order rate constant for hydrolysis, kDulbecco: 37° C.; for Observed first order rate constant for hydrolysis, kMOPS: 50 mM morpholinopropane sulfonic acid, pH 7.0, 0.01% NaCl; for Observed first order rate constant for hydrolysis, kPBS: Phosphate buffered saline, pH 7.2, 37° C.; for Observed first order rate constant for hydrolysis, kDulbecco: modified Dulbecco's medium
Description: Prodrug purity of the prodrugs was determined by HPLC on a Hewlett-Packard LC 1090 Series II system equipped with a Phenomenex 250×4 mm column (5 μm particle size) eluted isocratically at 1 mL/min with acetonitrile/0.1 M triethylammonium acetate (TEAA), pH 7.0, (3:7). Aliquots (100 μL) from prodrug solutions were withdrawn and diluted with 100 μL of a solution of p-nitrobenzyl alcohol (an internal standard) in acetonitrile/0.1 M TEAA (6:4). UV detection was at 254 and 280 nm. Retention times for 1, 2, O^6-benzylguanine, O^6-benzyl-2′-deoxyguanosine and p-nitrobenzyl alcohol were 5.20, 4.97, 7.13, 7.18 and 8.64 min, respectively. All determinations were carried out in duplicate or triplicate.
The stability of the prodrugs was determined in phosphate buffered saline (pH 7.2) (Life Techologie, Inc), a Tris buffer containing 50 mM Tris-HCl (pH 7.5) (Life Technologies, Inc), 5 mM dithiothreitol and 0.1 mM EDTA, a MOPS buffer (pH 7.0) containing 50 mM morpholinopropane sulfonic acid, […] Dulbecco's medium prepared by combining 400 mL of Dulbecco's medium with 7 mL of 7.5% NanCO3, 4 mL of 15 mM glutamine, 2 mL gentamicin and 40 mL of fetal calf serum. Solutions were incubated at 37° C. and prodrug concentrations were analyzed by HPLC at various times as indicated above.
Rate constants for the first-order disappearance of prodrugs were estimated from semi-log plots of the concentration of prodrug as a function of time. The spontaneous rate of liberation, for example, in aqueous solutions, of the AGT inactivator is much lower than the rate for β-glucuronidase catalyzed liberation, for example, about 10 times less, and preferably 100 times less. The spontaneous rate of liberation of the AGT inactivator from the prodrug is low, e.g., about 0.2 to about 0.5% by weight per hour.

E. coli β-glucuronidase = target: T2, E. coli β-glucuronidase (Escherichia coli, UniProt P05804); test: Enzymatic hydrolysis of prodrugs by E. coli β-glucuronidase in MOPS buffer; format: biochemical; conditions: 0.2 unit/mL E. coli enzyme, FIG. 1B
T2 construct: purchased Sigma type IX-A
T2 sequence (P05804 whole entry): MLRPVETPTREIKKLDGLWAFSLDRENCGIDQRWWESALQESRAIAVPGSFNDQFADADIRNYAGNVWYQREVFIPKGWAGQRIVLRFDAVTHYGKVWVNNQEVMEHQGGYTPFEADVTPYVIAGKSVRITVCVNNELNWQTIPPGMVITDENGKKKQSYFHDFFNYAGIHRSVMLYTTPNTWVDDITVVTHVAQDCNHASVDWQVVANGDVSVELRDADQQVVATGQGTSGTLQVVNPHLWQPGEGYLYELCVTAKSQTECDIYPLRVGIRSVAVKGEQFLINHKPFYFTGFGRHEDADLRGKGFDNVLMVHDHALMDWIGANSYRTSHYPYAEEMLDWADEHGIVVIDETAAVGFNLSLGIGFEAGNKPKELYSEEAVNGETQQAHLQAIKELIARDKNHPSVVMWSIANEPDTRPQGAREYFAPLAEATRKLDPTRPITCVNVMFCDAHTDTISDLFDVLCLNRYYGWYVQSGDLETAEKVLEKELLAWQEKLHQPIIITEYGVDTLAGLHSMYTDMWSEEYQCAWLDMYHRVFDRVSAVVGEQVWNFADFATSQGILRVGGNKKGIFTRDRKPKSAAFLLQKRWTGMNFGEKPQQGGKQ
Description: as §1

[4] = target: T3, human O^6-alkylguanine-DNA alkyltransferase (Homo sapiens, UniProt P16455); test: Inactivation of purified recombinant human alkyltransferase (AGT) in vitro, [3H]-methylated DNA substrate; format: biochemical; conditions: for IC50: absence of β-glucuronidase, 30 min at 37° C., FIG. 2, read-out: inactivation of human AGT: concentration up to which inactive; for alkyltransferase inactivation in the presence of bovine liver β-glucuronidase: incubation with bovine liver β-glucuronidase (20 or 200 units/mL) for 30 min, FIG. 2A/2B
T3 sequence (P16455 1-207): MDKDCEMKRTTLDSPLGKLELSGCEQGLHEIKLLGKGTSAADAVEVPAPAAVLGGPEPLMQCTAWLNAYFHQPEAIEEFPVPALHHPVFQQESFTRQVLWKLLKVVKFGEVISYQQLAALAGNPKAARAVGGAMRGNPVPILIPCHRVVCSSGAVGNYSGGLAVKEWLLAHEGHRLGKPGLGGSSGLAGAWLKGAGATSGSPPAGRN
Description: Purified recombinant human alkyltransferase was incubated with different concentrations of prodrugs in 0.5 mL of reaction buffer (50 mM Tris-HCl, pH 7.6, 0.1 mM EDTA, 5.0 mM dithiothreitol) containing 50 μg of hemocyanin for 30 min at 37° C. For experiments involving β-glucuronidase, the bovine liver protein, prodrugs and alkyltransferase were incubated together in the above hemocyanin-containing buffer for 30 min at 37° C. The remaining alkyltransferase activity was determined after incubation with a [^3H]-methylated calf thymus DNA substrate for 30 min at 37° C. by measuring the [^3H]-methylated methylated protein formed, which was collected on nitrocellulose filters. The results were expressed as the percentage of the alkyltransferase activity remaining.

Row | Compound | solubility (Solubility in water) | ED90 for HT29 cell killing by 40 μM BCNU following a 2-hr incubation with drug (HT29 cells) | stability under acidic conditions compared with O^6-benzylguanine [1] | fold more water soluble than O^6-benzylguanine (Solubility in water; relative to O^6-benzylguanine) | hydrolysis by the bovine liver enzyme (prodrug disappearance) [2] | Observed first order rate constant for hydrolysis, kTris [3] | Observed first order rate constant for hydrolysis, kMOPS [3] | Observed first order rate constant for hydrolysis, kPBS [3] | average half-time for decomposition ([3]; aqueous buffers of Table 1) | Observed first order rate constant for hydrolysis, kDulbecco [3] | hydrolysis by the E. coli enzyme (prodrug disappearance) (E. coli β-glucuronidase) | IC50 [4] | alkyltransferase inactivation in the presence of bovine liver β-glucuronidase [4] | HT29 cell killing by BCNU after prodrug without β-glucuronidase (HT29 cells) | HT29 cell killing by BCNU after prodrug with β-glucuronidase (HT29 cells)
1 | NCc1ccc(COc2nc(N)nc3[nH]cnc23)cc1 [Compound 24, O^6-(4-Aminomethylbenzyl)guanine] | > 100 mg/mL | >>5 μM |  |  |  |  |  |  |  |  |  |  |  |  | 
2 | NCc1cccc(COc2nc(N)nc3nc[nH]c23)c1 [Compound 25, O^6-(3-Aminomethylbenzyl)guanine] | > 100 mg/mL | 1.75 µM | far more stable | at least 700 × |  |  |  |  |  |  |  |  |  |  | 
3 | Nc1nc(OCc2ccccc2)c2nc[nH]c2n1 [O^6-benzylguanine, reference compound] | 0.1 mg/mL (≈ 0.415 mM) | 0.75 µM |  |  |  |  |  |  |  |  |  |  |  |  | 
4 | O=C(Nc1nc(OCc2ccccc2)c2nc[nH]c2n1)OCc1ccc(O[C@@H]2O[C@H](C(=O)O)[C@@H](O)[C@H](O)[C@H]2O)c([N+](=O)[O-])c1 [Prodrug 1, O^6-Benzyl-N-[[[[4′-[(-β-D-glucopyranuronosyl)oxy]-3′-nitrophenyl]methyl]oxy]carbonyl]guanine, monosodium salt] |  |  |  |  | rapid disappearance | 4.06e-06 min⁻¹ | 3.77e-06 min⁻¹ | 3.86e-06 min⁻¹ | ~100 days | 7.15e-08 s⁻¹ | rapid disappearance | > 50 µM | efficient alkyltransferase inactivation | quite resistant to killing | greatly sensitized to killing by BCNU
5 | O=C(Nc1nc(OCc2ccccc2)c2ncn([C@H]3C[C@H](O)[C@@H](CO)O3)c2n1)OCc1ccc(O[C@@H]2O[C@H](C(=O)O)[C@@H](O)[C@H](O)[C@H]2O)c([N+](=O)[O-])c1 [Prodrug 2, O^6-Benzyl-N^2-[[[[4″-[(β-D-glucopyranuronosyl)oxy]-3″-nitrophenyl]methyl]oxy]carbonyl]-2′-deoxyguanosine, monosodium salt] |  |  |  |  | rapid disappearance | 1.55e-07 min⁻¹ | 1.88e-07 min⁻¹ | 6.46e-07 min⁻¹ |  | 7.8e-09 s⁻¹ | rapid disappearance | > 50 µM | efficient alkyltransferase inactivation | quite resistant to killing | much greater cell killing by BCNU
